Measurements from patent publication US11274314B2, “Herbicide safener combinations for acetyl co-enzyme a carboxylase herbicide resistant plants” (priority 2016, dated 2022).

Columns and labels:
[1] = test system: quizalofop tolerant mutant wheat accessions and non-mutant check; assay: Cross-resistance study within the ACCase herbicide mode of action, plant survival; format: in vivo, Triticum aestivum L.; settings: for survival: 28 DAT, clethodim 65, sethoxydim 264, fluazifop 361 g ai ha^−1, clethodim + 10.5 g ai ha^−1 quizalofop
Experimental: (§1) Dose response. A dose response study was completed with 11, 23, 46, 92, and 184 g quizalofop ha^−1. Seven DAT the tops of plants were cut off above the newest above-ground growing point. Binomial evaluation of plant survival was performed 28 DAT. Differences were uncovered in the whole plant sensitivity to increasing application rates of quizalofop. […] Resistant to susceptible ratios for this experiment ranged from 1.6 to 7.5 based on survival/death of the plants. Cross-resistance. A cross-resistance study was conducted within the ACCase herbicide mode of action using herbicides normally lethal to wheat. Clethodim, sethoxydim, and fluazifop were used at rates of 65, 264, and 361 g ai ha^−1, plus a treatment of clethodim and 10.5 g ai ha^−1 quizalofop. Seven DAT the tops of plants were cut off above the newest above-ground growing point. Binomial evaluation of plant survival was performed 28 DAT. Tolerance of quizalofop mutants to clethodim and sethoxydim was low (Table 1). The presence of any cross tolerance presents evidence that stacking resistant ACCase copies into a single plant could lead to resistance to additional herbicides. At this stage only a third of the total ACCase in the plant would have a mutation and contain tolerance to ACCase inhibitors if the mutation is target-site-based. DNA sequencing. DNA was collected from 26 quizalofop-tolerant phenotypes. Genome-specific primers were developed to amplify sequences from the A, B, and D ancestral wheat genomes. Sequenced results were compared to previously cloned non-mutant wheat sequences to determine any nucleotide substitutions present. […] This mutation on the A genome was found in eight accessions, on the B genome in nine accessions, and on the D genome in nine accessions. No accession had more than one of these SNPs. The mutation was a C to T substitution resulting in an alanine to valine change (FIG. 7). Each accession with higher survival than the background contained one of these SNPs. Based on the chromatograph patterns, the majority these SNPs are also believed to be homozygous in the plant. ACCase enzyme characterization. An in-vitro enzyme assay was conducted to observe ACCase in conjunction with quizalofop directly to determine if the presence of ACCase mutations decreases the ability of herbicides to inhibit ACCase activity. Four quizalofop concentrations of 0.1, 1, 10, and 100 μM were included in the assay along with a non-treated treatment. The experiment included four accessions which included a representative from the three mutations detected and non-mutagenized wheat. […] Calculated at the 125 level, the resistant to susceptible value for the A genome was 4.57, the B genome was 3.57 and the D genome was 10.86.

[2] = test system: single copy varieties AF28-A, AF26-B, AF10-D; assay: Safener potentiation of ACCase herbicide resistance in single copy wheat varieties; format: in vivo; settings: safener combined with ACCase herbicide; single copy varieties vs multiple copy or multiple genome lines
[3] = test system: single-gene (AF28, AF26, AF10) and two-gene (AB17, AB157, BD4, AD91) wheat lines; assay: Field crop safety trial with and without safener
Experimental: During the 2014-2015 growing season, a field crop safety trial was performed to assess these lines for relative levels of resistance and performance under two application timings, applied with and without the safener cloquintocet-mexyl.
Determine relative levels of resistance between two-gene lines and single-gene lines. Determine which application timing (early or late spring) provided the highest crop safety.
One quizalofop susceptible line (Hatcher), four two-gene breeding lines (CO14A006 [AB17], CO14A041[AB157], CO14A075 [BD4], CO14A065 [AD91) and three one-gene parent lines (AF28, AF26, and AF10) were compared. A split-split plot design was used in which quizalofop p-ethyl was applied at 92.5 g ai ha^−1 with 1% MSO corresponding to the highest likely label application rate on March 31st at the tillering growth stage, and on May 2nd at the jointing growth stage. Cloquintocet safener (10 g ai/ha) was included in the split-split plot design. In the analysis, visual injury ratings and height were assessed one month before harvest, and grain yield in grams per plot was also used as a response factor. The SAS statistical package and proc mixed were used for analysis with a tukey-adjusted p-value of 0.05 as the cutoff value. The analysis was sliced by the cloquintocet factor, and comparisons of timing were made within lines.

[4] = test system: quizalofop-tolerant winter wheat accessions vs non-mutant Hatcher wheat; assay: Visual evaluation of quizalofop injury on quizalofop-tolerant accessions; format: in vivo, Triticum aestivum L.; settings: nearly all of 18 quizalofop-tolerant accessions; 21.05 g ai ha^−1; 28 DAT; compared with non-mutant Hatcher
Experimental: Plants were screened for visual injury, whole-plant quizalofop tolerance differences, cross-tolerance, and evaluated genotypically and enzymatically.
Visual evaluation. 18 quizalofop-tolerant accessions were treated with 21.05 g ai ha^−1 quizalofop, a discriminating dose based on previous studies. Plants were evaluated 28 days after treatment (DAT) for visible injury to quizalofop on a scale of 0 to 100%, with 0 being no injury and 100 being complete desiccation. […] The accessions had few completely dead plants, with the exception of the one accession not different than the background.

[5] = test system: ACCase, A genome mutation (alanine to valine at position 2004); assay: In-vitro ACCase enzyme assay, A genome SNP accession; format: biochemical, wheat
Experimental: (§2) Dose response. A dose response study was completed with 11, 23, 46, 92, and 184 g quizalofop ha^−1. Seven DAT the tops of plants were cut off above the newest above-ground growing point. Binomial evaluation of plant survival was performed 28 DAT. Differences were uncovered in the whole plant sensitivity to increasing application rates of quizalofop. […] Resistant to susceptible ratios for this experiment ranged from 1.6 to 7.5 based on survival/death of the plants. Cross-resistance. A cross-resistance study was conducted within the ACCase herbicide mode of action using herbicides normally lethal to wheat. Clethodim, sethoxydim, and fluazifop were used at rates of 65, 264, and 361 g ai ha^−1, plus a treatment of clethodim and 10.5 g ai ha^−1 quizalofop. Seven DAT the tops of plants were cut off above the newest above-ground growing point. Binomial evaluation of plant survival was performed 28 DAT. Tolerance of quizalofop mutants to clethodim and sethoxydim was low (Table 1). […] The experiment included four accessions which included a representative from the three mutations detected and non-mutagenized wheat. […] Calculated at the 125 level, the resistant to susceptible value for the A genome was 4.57, the B genome was 3.57 and the D genome was 10.86.

[6] = test system: ACCase, B genome mutation (alanine to valine at position 2004); assay: In-vitro ACCase enzyme assay, B genome SNP accession; format: biochemical, wheat
Experimental: as §2

[7] = test system: ACCase, D genome mutation (alanine to valine at position 2004); assay: In-vitro ACCase enzyme assay, D genome SNP accession; format: biochemical, wheat; settings: for ACCase tolerance to quizalofop vs background: D genome SNP
Experimental: as §1, with “The mutation was a C to T substitution resulting in an alanine to valine change (FIG. 7). Each accession with higher survival than the background contained one of these SNPs. Based on the chromatograph patterns, the majority these SNPs are also believed to be homozygous in the plant. ACCase enzyme characterization. An in-vitro enzyme assay was conducted to observe ACCase in conjunction with quizalofop directly to determine if the presence of ACCase mutations decreases the ability of herbicides to inhibit ACCase activity. Four quizalofop concentrations of 0.1, 1, 10, and 100 μM were included in the assay along with a non-treated treatment.” left out

[8] = test system: ACCase of non-mutagenized winter wheat; assay: In-vitro ACCase enzyme assay, non-mutagenized wheat; format: biochemical; settings: non-mutagenized winter wheat vs mutant accessions; 0.1-100 μM
Experimental: as §2

Which results are given for `CCSC(C)CC1CC(=O)C(/C(CC)=N/OC/C=C/Cl)=C(O)C1` (centres unmarked) [Clethodim, (E,E)-(.+−.)-2-[1-[[(3-chloro-2-propenyl)oxy]imino]propyl]-5-[2-(ethylth-io)propyl]-3-hydroxy-2-cyclohexen-1-one]?
survival ([1]; Accession 0 (non-mutant check)): 0%; survival ([1]; Accession 1): 10%; survival ([1]; Accession 2): 0%; survival ([1]; Accession 3): 0%; survival ([1]; Accession 4): 0%; survival ([1]; Accession 5): 0%; survival ([1]; Accession 6): 0%; survival ([1]; Accession 7): 0%; survival ([1]; Accession 8): 25%; survival ([1]; Accession 9): 17%; survival ([1]; Accession 10): 0%; survival ([1]; Accession 11): 0%; survival ([1]; Accession 12): 17%; survival ([1]; Accession 13): 0%; survival ([1]; Accession 14): 0%; survival ([1]; Accession 15): 0%; survival ([1]; Accession 16): 0%; survival ([1]; Accession 17): 0%

How did the survival ([1]; Accession 0 (non-mutant check)) turn out when `CC(Oc1ccc(Oc2ccc(C(F)(F)F)cn2)cc1)C(=O)O` (centres unmarked) [Fluazifop, (.+−.)-2-[4-[[5-(trifluoromethyl)-2-pyridinyl]oxy]phenoxy]propanoic acid] was run?
Its survival is 0%.

What about the survival ([1]; Accession 1) of the same molecule?
The survival was 0%.

What about the survival ([1]; Accession 2) of the same molecule?
The survival was 0%.

And the survival ([1]; Accession 3)?
Its survival is 0%.

What about the survival ([1]; Accession 4) of the same molecule?
The survival was 0%.

What about the survival ([1]; Accession 5) of the same molecule?
Its survival is 0%.

And the survival ([1]; Accession 6)?
Its survival is 0%.

And the survival ([1]; Accession 7)?
Its survival is 0%.

What about the survival ([1]; Accession 8) of the same molecule?
The survival was 0%.

And the survival ([1]; Accession 9)?
The survival was 0%.

And the survival ([1]; Accession 10)?
The survival was 0%.

And the survival ([1]; Accession 11)?
Its survival is 0%.

And the survival ([1]; Accession 12)?
Its survival is 0%.

And the survival ([1]; Accession 13)?
The survival was 0%.

What about the survival ([1]; Accession 14) of the same molecule?
The survival was 0%.

What about the survival ([1]; Accession 15) of the same molecule?
Its survival is 0%.

What about the survival ([1]; Accession 16) of the same molecule?
Its survival is 0%.

And the survival ([1]; Accession 17)?
The survival was 0%.

How did the survival ([1]; Accession 0 (non-mutant check)) turn out when `CCCC(=NOCC)C1=C(O)CC(CC(C)SCC)CC1=O` (centres unmarked) [Sethoxydin, 2-[1-(ethoxyimino)-butyl]-5-[2-(ethylthio)propyl]-3-hydroxy-2-cylohexen-1-one] was run?
The survival was 0%.

And the survival ([1]; Accession 1)?
The survival was 0%.

And the survival ([1]; Accession 2)?
The survival was 0%.

What about the survival ([1]; Accession 3) of the same molecule?
The survival was 0%.

What about the survival ([1]; Accession 4) of the same molecule?
The survival was 0%.

What about the survival ([1]; Accession 5) of the same molecule?
The survival was 0%.

And the survival ([1]; Accession 6)?
The survival was 0%.

What about the survival ([1]; Accession 7) of the same molecule?
The survival was 0%.

And the survival ([1]; Accession 8)?
Its survival is 0%.

What about the survival ([1]; Accession 9) of the same molecule?
The survival was 0%.

And the survival ([1]; Accession 10)?
Its survival is 0%.

What about the survival ([1]; Accession 11) of the same molecule?
The survival was 8%.

What about the survival ([1]; Accession 12) of the same molecule?
Its survival is 8%.

And the survival ([1]; Accession 13)?
The survival was 0%.

What about the survival ([1]; Accession 14) of the same molecule?
Its survival is 0%.

And the survival ([1]; Accession 15)?
The survival was 0%.

What about the survival ([1]; Accession 16) of the same molecule?
The survival was 0%.

And the survival ([1]; Accession 17)?
The survival was 0%.

And the “Tolerance of quizalofop mutants” value ([1]; summary of Table 1)?
The value was “low”.

`O=C(O)COc1ccc(Cl)c2cccnc12` [cloquintocet acid] was tested. Which “potentiation of resistance to acetyl-CoA carboxylase herbicides” value [2] did it give?
The value was “just as effectively resistance as the multiple copy lines”.

`CCOC(=O)[C@@H](C)Oc1ccc(Oc2cnc3cc(Cl)ccc3n2)cc1` [quizalofop p-ethyl] was tested. Which “crop injury (reduced height, reduced yield, or increased injury rating)” value ([3]; May (jointing) compared to March (tillering) treatment timing) did it give?
The value was “consistently higher crop injury”.

And the crop safety ([3]; all two-gene lines, 92.5 g ai ha^−1, no safener, vs single-gene lines)?
Its crop safety is “much higher levels of crop safety”.

What about the “crop injury compared to the untreated control” value ([3]; single-gene line AF28, 92.5 g ai ha^−1, no safener) of the same molecule?
The value was “only showed injury with the May treatment timing”.

And the “crop injury compared to the untreated control” value ([3]; single-gene lines, 92.5 g ai ha^−1 with 1% MSO, no safener, March and May timings)?
The value was “significant injury”.

What about the crop injury ([3]; two-gene line AD91, 92.5 g ai ha^−1, with or without safener, March or May) of the same molecule?
Its crop injury is “no crop injury for any treatment combination”.

What about the crop injury ([3]; two-gene lines AB157 and AB17, 92.5 g ai ha^−1, no safener) of the same molecule?
The crop injury was “crop injury in the May treatment timing”.

With `CC(Oc1ccc(Oc2cnc3cc(Cl)ccc3n2)cc1)C(=O)O` (centres unmarked) [quizalofop, (.+−.)-2-[4-[(6-chloro-2-quinoxalinyl)-oxy]phenoxy]propanoic acid] as the molecule, how does the “visible injury to quizalofop on a scale of 0 to 100%” value [4] read?
The value was “more tolerant to quizalofop than non-mutant Hatcher wheat”.

What about the “ACCase tolerance to quizalofop vs background” value ([5]; A genome SNP, 100 μM quizalofop) of the same molecule?
The value was “higher than background tolerance”.

What about the “resistant to susceptible value, calculated at the 125 level” value (from here on “resistant … calculated at the 125 level”) ([5]; A genome, vs non-mutagenized wheat) of the same molecule?
The value was 4.57.

What about the “ACCase tolerance to quizalofop vs background” value ([6]; B genome SNP, 10 μM quizalofop) of the same molecule?
The value was “higher than background levels of tolerance”.

What about the “resistant … calculated at the 125 level” value ([6]; B genome, vs non-mutagenized wheat) of the same molecule?
The value was 3.57.

And the “ACCase tolerance to quizalofop vs background” value ([7]; 10 μM quizalofop)?
Its value is “higher than background levels of tolerance”.

What about the “ACCase tolerance to quizalofop vs background” value ([7]; 100 μM quizalofop) of the same molecule?
The value was “higher than background tolerance”.

And the “resistant … calculated at the 125 level” value ([7]; D genome, vs non-mutagenized wheat)?
The value was 10.86.

What about the “ACCase sensitivity to quizalofop” value [8] of the same molecule?
Its value is “greater sensitivity”.
